Earlier results, collected in PMC7946228, “Discovery of novel candidates for anti-liposarcoma therapies by medium-scale high-throughput drug screening” (PLoS ONE, 2021).

Tested on: all cancer cell lines (NCI-60)
Parameters: method as in NCI-60 project
Conditions: ref NCI-60 project; cited from earlier work

SMILES: CC(C)[C@]12O[C@H]1[C@@H]1O[C@]13[C@]1(O[C@H]1C[C@H]1C4=C(CC[C@@]13C)C(=O)OC4)[C@@H]2O [Triptolide]
- IC50: 0.012 µM
